Laboratory results from ChEMBL document CHEMBL5036363, “Discovery and Lead Optimization of Benzene-1,4-disulfonamides as Oxidative Phosphorylation Inhibitors” (J Med Chem, 2022).
The source made the active and inactive calls. The calls are words filed in the database; no cut-off is given here.

Experiments:
[1] = system: MIA PaCa-2; assay: Cytotoxicity against human MIA PaCa-2 cells assessed as inhibition of cell growth incubated for 7 days in glucose-containing medium by MTT assay; type: functional, cell-based; conditions: MIA PaCa-2, 168 h
[2] = system: BXPC-3; assay: Cytotoxicity against human BXPC-3 cells assessed as inhibition of cell growth incubated for 7 days in glucose-containing medium by MTT assay; type: functional, cell-based; conditions: BXPC-3, 168 h
[3] = Microsomal stability in human liver microsomes assessed as half life at 10 uM measured upto 60 mins by LC-MS/MS analysis; type: ADME, Microsome; conditions: for t1/2: microsomes, 1 h, 10 µM; for half-life at 10 µM: liver microsomes
[4] = Microsomal stability in mouse liver microsomes assessed as half life at 10 uM measured upto 60 mins by LC-MS/MS analysis; type: ADME, Microsome; conditions: for t1/2: microsomes, 1 h, 10 µM
[5] = system: MIA PaCa-2; assay: Cytotoxicity against human MIA PaCa-2 cells assessed as inhibition of cell growth incubated for 3 days in glucose-containing medium by MTT assay; type: functional, cell-based; conditions: MIA PaCa-2, 72 h
[6] = system: MIA PaCa-2; assay: Cytotoxicity against human MIA PaCa-2 cells assessed as inhibition of cell growth incubated for 3 days in galactose-containing medium by MTT assay; type: functional, cell-based; conditions: MIA PaCa-2, 72 h
[7] = system: MIA PaCa-2; assay: Inhibition of oxidative phosphorylation in human MIA PaCa-2 cells assessed as reduction in ATP production incubated for 24 hrs in glucose-containing medium by CellTiter-glo luminescence assay; type: functional, cell-based
[8] = Inhibition of oxidative phosphorylation in human MIA PaCa-2 cells assessed as reduction in ATP production incubated for 24 hrs in galactose-containing medium by CellTiter-glo luminescence assay; type: functional, cell-based; conditions: MIA PaCa-2, 24 h
[9] = Inhibition of oxidative phosphorylation complex I in human MIA PaCa-2 cells assessed as reduction in NAD+/NADH ratio incubated for 48 hrs by NAD/NADH-Glo assay; type: cell-based; conditions: MIA PaCa-2, 48 h
[10] = Inhibition of mitochondrial complex I (unknown origin) incubated for 20 hrs by Colorimetric assay
[11] = system: NCI-H460; assay: Cytotoxicity against human NCI-H460 cells assessed as reduction in galactose-dependent cell viability incubated for 3 days by IncuCyte live-cell imaging assay; type: functional, cell-based; conditions: NCI-H460, 72 h
[12] = Cytotoxicity against human UM16 cells assessed as inhibition of cell growth; type: functional, cell-based
[13] = Inhibition of mitochondrial complex I in human HepG2 cells assessed as reduction in oxygen consumption rate incubated for 6 hrs by seahorse XF analyser based assay; type: cell-based
[14] = Inhibition of mitochondrial complex I in human pancreatic cancer cells assessed as reduction in oxygen consumption rate measured immediately by seahorse XFe96 analyser based assay; conditions: pancreatic cancer cell

| t1/2 [4] | Structure (SMILES) | IC50 [1] | IC50 [2] | IC50 [5] | IC50 [6] | also measured |
| --- | --- | --- | --- | --- | --- | --- |
| 7.77 min | CCC(CC)S(=O)(=O)c1ccc(S(=O)(=O)N2CCC[C@@H](C(=O)N3CCN(c4nc(C(C)C)no4)CC3)C2)cc1 | 50 nM | 120 nM | – | – | t1/2 [3]: 2.53 min |
| 29.36 min | CC(C)NS(=O)(=O)c1ccc(S(=O)(=O)N2CCC[C@@H](C(=O)N3CCN(c4nc(C(C)C)no4)CC3)C2)cc1 | 2600 nM | 2600 nM | 200 nM | > 10000 nM | t1/2 [3]: 3.36 min |
| 32.58 min | CC(C)c1noc(C2CCN(C(=O)[C@@H]3CCCN(S(=O)(=O)c4ccc(S(=O)(=O)C(C)C)cc4)C3)CC2)n1 | 50 nM | – | 20 nM | > 10000 nM | half-life at 10 µM [3]: > 60 min; inhibition [7]: inactive; IC50 [8]: 17.2 nM; IC50 [9]: 7.1 nM |
| 27.1 min | CCN(CC)S(=O)(=O)c1ccc(S(=O)(=O)N2CCC[C@@H](C(=O)NC3COC3)C2)cc1 | 2300 nM | 13800 nM | 900 nM | > 10000 nM | t1/2 [3]: 18.5 min; inhibition [7]: inactive; IC50 [8]: 951 nM; IC50 [9]: 1660 nM |
| – | FC(F)(F)c1ccc(/C=C/c2nc(COc3ccc(CCCCn4ccnn4)cc3)co2)cc1 [MUBRITINIB] | – | – | – | – | IC50 [10]: 51 nM |
| – | Cc1nc(-c2nc(-c3ccc(OC(F)(F)F)cc3)no2)nn1Cc1cccc(N2CCC(S(C)(=O)=O)CC2)c1 | – | – | – | – | IC50 [11]: 1.4 nM |
| 10.47 min | CCN(CC)C(=O)c1ccc(S(=O)(=O)N2CCC[C@@H](C(=O)N3CCN(c4nc(C(C)C)no4)CC3)C2)cc1 | 100 nM | 1400 nM | 70 nM | > 10000 nM | t1/2 [3]: 12.76 min |
| – | CC(C)c1noc(N2CCN(C(=O)[C@@H]3CCCN(S(=O)(=O)c4ccc(S(=O)(=O)C(C)C)cc4)C3)CC2)n1 | 70 nM | – | – | > 10000 nM | half-life at 10 µM [3]: > 60 min; half-life at 10 µM ([4]; liver microsomes): > 60 min; inhibition [7]: inactive; IC50 [8]: 29.2 nM; IC50 [9]: 30.4 nM |
| – | CCOC(=O)[C@H]1CCCN(S(=O)(=O)c2ccc(S(=O)(=O)N(CC)CC)cc2)C1 | – | – | – | – | IC50 [12]: 9470 nM |
| – | N=C(N)NC(=N)NCCc1ccccc1 [PHENFORMIN] | – | – | – | – | IC50 [13]: 3800 nM |
| – | CCOC(=O)[C@@H]1CCCN(S(=O)(=O)c2ccc(S(=O)(=O)N(CC)CC)nc2)C1 | 5600 nM | 8000 nM | 1600 nM | > 10000 nM | – |
| – | CCOC(=O)[C@@H]1CCCN(S(=O)(=O)c2ccc(S(=O)(=O)N3CCOCC3)cc2)C1 | 23500 nM | 23400 nM | 4100 nM | > 10000 nM | – |
| – | CN(C)C(=N)NC(=N)N [METFORMIN] | – | – | – | – | IC50 [14]: 800000 nM |
| – | CCN(CC)S(=O)(=O)c1ccc(S(=O)(=O)N2CCC[C@@H](C(=O)N(C)C(C)C)C2)cc1 | 6200 nM | 7700 nM | 1400 nM | > 10000 nM | – |
| – | CCOC(=O)[C@@H]1C[C@H](O)CN(S(=O)(=O)c2ccc(S(=O)(=O)N(CC)CC)cc2)C1 (relative stereo) | 1300 nM | 3300 nM | 300 nM | > 10000 nM | – |
| – | CCOC(=O)[C@@H]1C[C@@H](O)CN(S(=O)(=O)c2ccc(S(=O)(=O)N(CC)CC)cc2)C1 (relative stereo) | 7900 nM | 10800 nM | 2100 nM | > 10000 nM | – |
